As usually defined, the EC50 is the concentration that produces a half-maximal response. Read a high EC50 as a less potent agent.

This is an account of results in patent publication US8648094B2, “IAP BIR domain binding compounds” (Pharmascience, Inc., priority 2006, dated 2014).

The structures appear in SMILES notation.

This assay deals with SKOV-3 cells. The experiment in a line: Survival MTT assay. To be noted: Homo sapiens, SK-OV-3, 72 hours. The class given is cell-based. On the procedure: One day prior the treatment with compound, 2000 to 4000 cells per well were plated in a tissue culture treated 96 well format dish with 100 uL of media and incubated at 37° C., 5% CO2. On the day of compound treatment, compounds were diluted with cell culture media to a working stock concentration of 2×. 100 ul of diluted compound were then added to each well. The treated plate was incubated for 72 hours at 37° C., 5% CO2. Upon incubation, the cell viability was assessed as follows; 20 uL of MTT reagent (5 mg/mL) were added per well to cell plate. The plate was incubated for 2 hrs at 37° C. in presence of 5% CO2. The supernatant was then removed from the plate and 100 uL of isopropanol was added. The absorbance was measured in a TECAN spectrophotometer at 570 nm. The percentage of viability was expressed in percentage of the signal obtained with non treated cells.
For orientation: Tetrazolium assays rely on reduction of a dye to a coloured formazan, in cell work by metabolically active cells.
As for `CN[C@@H](C)C(=O)N[C@H](C(=O)N1CCC[C@H]1CN(CCc1ccccc1)C(=O)c1ccc(C(=O)N(CCc2ccccc2)C[C@@H]2CCCN2C(=O)[C@@H](NC(=O)[C@H](C)NC)C(C)(C)C)cc1)C(C)(C)C` [Compound 1], the EC50 lay within 10 to 25 nM.

Compound `CN[C@@H](C)C(=O)N[C@H](C(=O)N1CCC[C@H]1CN(CCc1ccccc1)C(=O)CCCCCCCCC(=O)N(CCc1ccccc1)C[C@@H]1CCCN1C(=O)[C@@H](NC(=O)[C@H](C)NC)C(C)(C)C)C(C)(C)C` [Compound 2] had a concentration giving a half-maximal response (EC50) of under 10 nM.

Compound `CN[C@@H](C)C(=O)N[C@H](C(=O)N1CCC[C@H]1CN(CCc1ccccc1)C(=O)CCCC(=O)N(CCc1ccccc1)C[C@@H]1CCCN1C(=O)[C@@H](NC(=O)[C@H](C)NC)C(C)(C)C)C(C)(C)C` [Compound 3] registered a concentration giving a half-maximal response (EC50) of 10 to 25 nM.

The compound `CN[C@@H](C)C(=O)N[C@H](C(=O)N1CCC[C@H]1CN(CCc1ccccc1)C(=O)c1ccc(-c2ccc(C(=O)N(CCc3ccccc3)C[C@@H]3CCCN3C(=O)[C@@H](NC(=O)[C@H](C)NC)C(C)(C)C)cc2)cc1)C(C)(C)C` [Compound 4] registered a concentration giving a half-maximal response (EC50) of under 10 nM.

Take `CN[C@@H](C)C(=O)N[C@H](C(=O)N1CCC[C@H]1CN(CCc1ccccc1)C(=O)CCC(=O)N(CCc1ccccc1)C[C@@H]1CCCN1C(=O)[C@@H](NC(=O)[C@H](C)NC)C(C)(C)C)C(C)(C)C` [Compound 6]: the EC50 is over 25 nM.

Consider `CN[C@@H](C)C(=O)N[C@H](C(=O)N1CCC[C@H]1CN(CCc1ccccc1)C(=O)CCCCCCC(=O)N(CCc1ccccc1)C[C@@H]1CCCN1C(=O)[C@@H](NC(=O)[C@H](C)NC)C(C)(C)C)C(C)(C)C` [Compound 7], for which the 50% effective concentration (EC50) lay in the range of 10 to 25 nM.

`CN[C@@H](C)C(=O)N[C@@H](CC1CCCCC1)C(=O)N1CCC[C@H]1CN(CCc1ccccc1)C(=O)CCCCCCCCC(=O)N(CCc1ccccc1)C[C@@H]1CCCN1C(=O)[C@H](CC1CCCCC1)NC(=O)[C@H](C)NC` [Compound 9] had an EC50 of over 25 nM.

As to `CN[C@@H](C)C(=O)N[C@H](C(=O)N1CCC[C@H]1CN(CCc1ccccc1)S(=O)(=O)c1ccc(-c2ccc(S(=O)(=O)N(CCc3ccccc3)C[C@@H]3CCCN3C(=O)[C@@H](NC(=O)[C@H](C)NC)C(C)(C)C)cc2)cc1)C(C)(C)C` [Compound 13], the EC50 lay in the range of 10 to 25 nM.

As for `CN[C@@H](C)C(=O)N[C@H](C(=O)N1CCC[C@H]1CN(CCc1ccccc1)C(=O)CCCCCCCCCCC(=O)N(CCc1ccccc1)C[C@@H]1CCCN1C(=O)[C@@H](NC(=O)[C@H](C)NC)C(C)(C)C)C(C)(C)C` [Compound 18], the EC50 lay in the range of 10 to 25 nM.

Turning to `CN[C@@H](C)C(=O)N[C@H](C(=O)N1CCC[C@H]1CN(C[C@@H](C)c1ccccc1)C(=O)CCCCCCCCC(=O)N(C[C@@H]1CCCN1C(=O)[C@@H](NC(=O)[C@H](C)NC)C(C)(C)C)C[C@@H](C)c1ccccc1)C(C)(C)C` [Compound 22], the EC50 is over 25 nM.

As to `CN[C@@H](C)C(=O)N[C@H](C(=O)N1CCC[C@H]1CN(CCc1ccccc1)C(=O)c1ccc(Oc2ccc(C(=O)N(CCc3ccccc3)C[C@@H]3CCCN3C(=O)[C@@H](NC(=O)[C@H](C)NC)C(C)(C)C)cc2)cc1)C(C)(C)C` [Compound 27], the EC50 was over 25 nM.

For the compound `CN[C@@H](C)C(=O)N[C@H](C(=O)N1CCC[C@H]1CN(CCc1ccccc1)S(=O)(=O)c1cccc(S(=O)(=O)N(CCc2ccccc2)C[C@@H]2CCCN2C(=O)[C@@H](NC(=O)[C@H](C)NC)C(C)(C)C)c1)C(C)(C)C` [Compound 36], the EC50 is under 10 nM.

The compound `CN[C@@H](C)C(=O)N[C@H](C(=O)N1CCC[C@H]1CN(CCc1ccccc1)C(=O)CN(C)Cc1ccc(CN(C)CC(=O)N(CCc2ccccc2)C[C@@H]2CCCN2C(=O)[C@@H](NC(=O)[C@H](C)NC)C(C)(C)C)cc1)C(C)(C)C` [Compound 43] gave an EC50 of 10 to 25 nM.

`CN[C@@H](C)C(=O)N[C@H](C(=O)N1CCC[C@H]1CN(CCc1ccccc1F)C(=O)CCCCCCCCC(=O)N(CCc1ccccc1F)C[C@@H]1CCCN1C(=O)[C@@H](NC(=O)[C@H](C)NC)C(C)(C)C)C(C)(C)C` [Compound 46] displayed an EC50 of under 10 nM.

On to `CN[C@@H](C)C(=O)N[C@H](C(=O)N1CCC[C@H]1CN(CCc1ccc(F)cc1)C(=O)CCC(=O)N(CCc1ccc(F)cc1)C[C@@H]1CCCN1C(=O)[C@@H](NC(=O)[C@H](C)NC)C(C)(C)C)C(C)(C)C` [Compound 48], for which the half-maximal effective concentration (EC50) lay within 10 to 25 nM.

`CN[C@@H](C)C(=O)N[C@H](C(=O)N1CCC[C@H]1CN(CCc1ccccc1)C(=O)CNC(=O)CCCCC(=O)NCC(=O)N(CCc1ccccc1)C[C@@H]1CCCN1C(=O)[C@@H](NC(=O)[C@H](C)NC)C(C)(C)C)C(C)(C)C` [Compound 50] showed an EC50 of 10 to 25 nM.

`CN[C@@H](C)C(=O)N[C@H](C(=O)N1CCC[C@H]1CN(CCc1ccc(F)cc1)S(=O)(=O)c1cccc(S(=O)(=O)N(CCc2ccc(F)cc2)C[C@@H]2CCCN2C(=O)[C@@H](NC(=O)[C@H](C)NC)C(C)(C)C)c1)C(C)(C)C` [Compound 57] displayed an EC50 of 10 to 25 nM.

In turn, `CN[C@@H](C)C(=O)N[C@H](C(=O)N1CCC[C@H]1CN(CCc1ccc(F)cc1)C(=O)c1ccc(-c2ccc(C(=O)N(CCc3ccc(F)cc3)C[C@@H]3CCCN3C(=O)[C@@H](NC(=O)[C@H](C)NC)C(C)(C)C)cc2)cc1)C(C)(C)C` [Compound 58] returned an EC50 of 10 to 25 nM.

The compound `CN[C@@H](C)C(=O)N[C@H](C(=O)N1CCC[C@H]1CN(CCc1ccccc1)C(=O)[C@@H](C)NC(=O)c1ccc(C(=O)N[C@H](C)C(=O)N(CCc2ccccc2)C[C@@H]2CCCN2C(=O)[C@@H](NC(=O)[C@H](C)NC)C(C)(C)C)cc1)C(C)(C)C` [Compound 59] had an EC50 of under 10 nM.

As for `CN[C@@H](C)C(=O)N[C@H](C(=O)N1CCC[C@H]1CN(CCc1ccccc1)C(=O)[C@H](C)NC(=O)c1ccc(C(=O)N[C@@H](C)C(=O)N(CCc2ccccc2)C[C@@H]2CCCN2C(=O)[C@@H](NC(=O)[C@H](C)NC)C(C)(C)C)cc1)C(C)(C)C` [Compound 62], the EC50 is over 25 nM.

`CN[C@@H](C)C(=O)N[C@H](C(=O)N1CCC[C@H]1CN(CCc1ccccc1)C(=O)CNC(=O)c1ccc2cc(C(=O)NCC(=O)N(CCc3ccccc3)C[C@@H]3CCCN3C(=O)[C@@H](NC(=O)[C@H](C)NC)C(C)(C)C)ccc2c1)C(C)(C)C` [Compound 63] displayed an EC50 of under 10 nM.

Regarding `CN[C@@H](C)C(=O)N[C@H](C(=O)N1CCC[C@H]1CN(CCc1ccccc1)C(=O)c1ccc(-c2cccc(C(=O)N(CCc3ccccc3)C[C@@H]3CCCN3C(=O)[C@@H](NC(=O)[C@H](C)NC)C(C)(C)C)c2)cc1)C(C)(C)C` [Compound 64], the EC50 fell in the range of 10 to 25 nM.

Regarding `CN[C@@H](C)C(=O)N[C@H](C(=O)N1CCC[C@H]1CN(CCc1ccc(F)cc1)C(=O)CNC(=O)c1ccc(C(=O)NCC(=O)N(CCc2ccc(F)cc2)C[C@@H]2CCCN2C(=O)[C@@H](NC(=O)[C@H](C)NC)C(C)(C)C)cc1)C(C)(C)C` [Compound 71], the concentration giving a half-maximal response (EC50) is under 10 nM.

`CN[C@@H](C)C(=O)N[C@H](C(=O)N1CCC[C@H]1CN(CCc1ccc(F)cc1)C(=O)CNC(=O)C(=O)NCC(=O)N(CCc1ccc(F)cc1)C[C@@H]1CCCN1C(=O)[C@@H](NC(=O)[C@H](C)NC)C(C)(C)C)C(C)(C)C` [Compound 73] showed an EC50 of under 10 nM.

Regarding `CN[C@@H](C)C(=O)N[C@H](C(=O)N1CCC[C@H]1CN(Cc1cccc(-c2ccccc2)c1)C(=O)CCCCCCCCC(=O)N(Cc1cccc(-c2ccccc2)c1)C[C@@H]1CCCN1C(=O)[C@@H](NC(=O)[C@H](C)NC)C(C)(C)C)C(C)(C)C` [Compound 75], the EC50 was 10 to 25 nM.

In turn, `CN[C@@H](C)C(=O)N[C@H](C(=O)N1CCC[C@H]1CN(CCc1ccc(F)cc1)C(=O)CNC(=O)c1ccc(-c2ccc(C(=O)NCC(=O)N(CCc3ccc(F)cc3)C[C@@H]3CCCN3C(=O)[C@@H](NC(=O)[C@H](C)NC)C(C)(C)C)cc2)cc1)C(C)(C)C` [Compound 76] registered an EC50 of under 10 nM.

Regarding `CN[C@@H](C)C(=O)N[C@H](C(=O)N1CCC[C@H]1CN(CCc1ccccc1)C(=O)CN(C)C(=O)c1ccc(-c2ccc(C(=O)N(C)CC(=O)N(CCc3ccccc3)C[C@@H]3CCCN3C(=O)[C@@H](NC(=O)[C@H](C)NC)C(C)(C)C)cc2)cc1)C(C)(C)C` [Compound 77], the concentration giving a half-maximal response (EC50) lay in the range of 10 to 25 nM.

In turn, `CN[C@@H](C)C(=O)N[C@H](C(=O)N1CCC[C@H]1C(=O)N(CCc1ccccc1)Cc1ccc(CN(CCc2ccccc2)C(=O)[C@@H]2CCCN2C(=O)[C@@H](NC(=O)[C@H](C)NC)C(C)(C)C)cc1)C(C)(C)C` [Compound 79] yielded a half-maximal effective concentration (EC50) of 10 to 25 nM.

Compound `CN[C@@H](C)C(=O)N[C@H](C(=O)N1CCC[C@H]1CN(CCc1ccccc1)C(=O)[C@H]1CCCN1C(=O)c1ccc(C(=O)N2CCC[C@@H]2C(=O)N(CCc2ccccc2)C[C@@H]2CCCN2C(=O)[C@@H](NC(=O)[C@H](C)NC)C(C)(C)C)cc1)C(C)(C)C` [Compound 81] yielded an EC50 of over 25 nM.

`CN[C@@H](C)C(=O)N[C@H](C(=O)N1CCC[C@H]1CN(CCc1ccc(F)cc1)C(=O)CNC(=O)c1cccc(C(=O)NCC(=O)N(CCc2ccc(F)cc2)C[C@@H]2CCCN2C(=O)[C@@H](NC(=O)[C@H](C)NC)C(C)(C)C)c1)C(C)(C)C` [Compound 83] registered a half-maximal effective concentration (EC50) of under 10 nM.

`CN[C@@H](C)C(=O)N[C@H](C(=O)N1CCC[C@H]1CN(CCc1ccccc1)C(=O)CNC(=O)c1ccc2ccc(C(=O)NCC(=O)N(CCc3ccccc3)C[C@@H]3CCCN3C(=O)[C@@H](NC(=O)[C@H](C)NC)C(C)(C)C)cc2c1)C(C)(C)C` [Compound 85]: the half-maximal effective concentration (EC50) is under 10 nM.

`CN[C@@H](C)C(=O)N[C@H](C(=O)N1CCC[C@H]1CN(CCc1ccccc1)C(=O)CNC(=O)c1cccc(C(=O)NCC(=O)N(CCc2ccccc2)C[C@@H]2CCCN2C(=O)[C@@H](NC(=O)[C@H](C)NC)C(C)(C)C)n1)C(C)(C)C` [Compound 88] registered an EC50 of over 25 nM.

In the case of `CN[C@@H](C)C(=O)N[C@H](C(=O)N1CCC[C@H]1CN(CCc1ccccc1)S(=O)(=O)c1ccc2ccc(S(=O)(=O)N(CCc3ccccc3)C[C@@H]3CCCN3C(=O)[C@@H](NC(=O)[C@H](C)NC)C(C)(C)C)cc2c1)C(C)(C)C` [Compound 90], the concentration giving a half-maximal response (EC50) fell in the range of 10 to 25 nM.
